Data reported in publication PMC4277782 (Journal of the American Chemical Society, 2014).

System: ProcM
Test: ProcM reactions with other
Assay type: biochemical, Prochlorococcus MIT9313
Conditions: preliminary; data not shown

Substance: ProcA4.3: ProcA substrate (TASGGCDTSMFCY; UniProt Q7V735 65-77, looked up)
- cyclization kinetics: some thioether rings form quickly, while others require a much longer time
